Results published in US8193350B2, “Fluorescent compound and labeling agent comprising the same” (Keio University, priority 2006, dated 2012).
Values joined by “and” are separate entries in the source; they are usually repeats but may differ in a detail not shown here. Identical values can stand only once. Like-named read-outs stand apart in the source and are kept apart here. Marks after values point to notes of the source that are not given here. Blank lines part the entries; values can stand above or below the molecule they belong to.

Experiments:
[1] = Optical properties: absorption and fluorescence emission spectra; type: physicochemical
[2] = cited from earlier work
[3] = Light fastness test: change of absorbance with time under the light of daily life; type: physicochemical; details: acetonitrile
Description: An experiment testing the light fastness of fluorescent compound 8 and Cy7 (trade name, 1-[3-(4-monomethoxytrityloxy)propyl]-1′-[3-[(2-cyanoethyl)-(N,N-diisopropyl)phosphoramidityl]propyl]-3,3,3′,3′-tetramethylindotricarbocyanine chloride) was carried out.
Fluorescent compound 8 and Cy7 (trade name) were respectively dissolved in acetonitrile to a concentration attaining an absorbance of 0.1. The solutions were left to stand under the same conditions (more specifically, under the light of daily life without light shading, and the absorbance was measured every day (or every other day). The change with time of the measured absorbance was graphed taking the relative absorbance (taking the absorbance before leaving to stand as 100%) along the ordinate and taking the days along the abscissa.

[4] = CHCl3, reference N,N′-bis(1-hexylheptyl)-perylene dye (Φ=1.00 in CH2Cl2)
[5] = CHCl3, reference 3,3′-diethyl-dithiazylcarbocyanine, excitation 650 nm, containing error of 10%
[6] = MeOH, reference 3,3′-diethyl-dithiazylcarbocyanine, excitation 650 nm, containing error of 10%

fwhm (full width at half maximum height) ([1]; MeOH): 29 nm
ε (molar extinction coefficient) ([1]; MeOH): 250,000 M^−1cm^−1
λabs (maximum absorption wavelength) ([1]; MeOH): 648 nm
λflu (maximum fluorescence wavelength) ([1]; MeOH): 670 nm
Molecule: 1-[3-(4-monomethoxytrityloxy)propyl]-1′-[3-[(2-cyanoethyl)-(N,N-diisopropyl)phosphoramidityl]propyl]-3,3,3′,3′-tetramethylindodicarbocyanine chloride [Cy5, reference compound]
Φ (fluorescence quantum yield) ([2]; the value in PBS obtained from Amersham Biosciences): 0.27^a

Molecule: CCN1C(=CC=Cc2sc3ccccc3[n+]2CC)Sc2ccccc21 [3,3′-diethyl-dithiazylcarbocyanine]
Φ of reference dye ([2]; in MeOH): 0.33

Molecule: COc1ccc(C(OCCC[N+]2=C(C=CC=CC=CC=C3N(CCCOP(OCCC#N)N(C(C)C)C(C)C)c4ccccc4C3(C)C)C(C)(C)c3ccccc32)(c2ccccc2)c2ccccc2)cc1.[Cl-] (centres unmarked) [Cy7, 1-[3-(4-monomethoxytrityloxy)propyl]-1′-[3-[(2-cyanoethyl)-(N,N-diisopropyl)phosphoramidityl]propyl]-3,3,3′,3′-tetramethylindotricarbocyanine chloride]
light fastness (in words) ([3]; light of daily life, 1 week): very poor
relative absorbance retained (absorbance before leaving to stand as 100%) ([3]; under the light of daily life without light shading, after 1 week): ≤ 10%

Molecule: CCCCC(CCCC)Oc1cc(C)c(C2=C3C=c4sc(C)cc4=[N+]3[B-](F)(F)n3c2cc2sc(C)cc23)c(C)c1 [Fluorescent Compound 3]
fwhm (full width at half maximum height) ([1]; CHCl3): 20 nm
ε (molar extinction coefficient) ([1]; CHCl3): 170,000 M^−1cm^−1
λabs (maximum absorption wavelength) ([1]; CHCl3): 586 nm
λflu (maximum fluorescence wavelength) ([1]; CHCl3): 596 nm
Φ (fluorescence quantum yield) [1, 4]: 0.39

Molecule: CCCCC(CCCC)Oc1cc(C)c(C2=C3C=c4oc(-c5ccc(OC)cc5)cc4=[N+]3[B-](F)(F)n3c2cc2oc(-c4ccc(OC)cc4)cc23)c(C)c1 [Fluorescent Compound 5]
shift of maximum absorption wavelength to longer wavelength compared with boron dipyrromethene (R1=R3=R5=R7=Me) [1]: about 170 nm
shift of maximum absorption wavelength to longer wavelength compared with fluorescent compound 2 [1]: about 90 nm
fwhm (full width at half maximum height) ([1]; CHCl3): 28 nm
ε (molar extinction coefficient) ([1]; CHCl3): 190,000 M^−1cm^−1
λabs (maximum absorption wavelength) ([1]; CHCl3): 673 nm
λflu (maximum fluorescence wavelength) ([1]; CHCl3): 685 nm
Φ (fluorescence quantum yield) [1, 4]: 0.68
fwhm (full width at half maximum height) ([1]; MeOH): 29 nm
ε (molar extinction coefficient) ([1]; MeOH): 200,000 M^−1cm^−1
λabs (maximum absorption wavelength) ([1]; MeOH): 664 nm
λflu (maximum fluorescence wavelength) ([1]; MeOH): 679 nm
Φ (fluorescence quantum yield) ([1]; MeOH, reference N,N′-bis(1-hexylheptyl)-perylene dye (Φ=1.00 in CH2Cl2)): 0.63
fwhm (full width at half maximum height) ([1]; THF): 27 nm
ε (molar extinction coefficient) ([1]; THF): 190,000 M^−1cm^−1
λabs (maximum absorption wavelength) ([1]; THF): 669 nm
λflu (maximum fluorescence wavelength) ([1]; THF): 680 nm
Φ (fluorescence quantum yield) ([1]; THF, reference N,N′-bis(1-hexylheptyl)-perylene dye (Φ=1.00 in CH2Cl2)): 0.67
fwhm, summary in text of the values in Table 1 ([1]; all solvents of Table 1): about 30 nm

Molecule: COc1ccc(-c2cc3c(o2)=CC2=Cc4cc5oc(-c6ccc(OC)cc6)cc5n4[B-](F)(F)[N+]=32)cc1 [Fluorescent Compound 6]
shift of maximum absorption wavelength to longer wavelength compared with boron dipyrromethene (R1=R3=R5=R7=Me) [1]: about 170 nm
shift of maximum absorption wavelength to longer wavelength compared with fluorescent compound 2 [1]: about 90 nm
fwhm (full width at half maximum height) ([1]; CHCl3): 24 nm
λabs (maximum absorption wavelength) ([1]; CHCl3): 683 nm and 673 nm
λflu (maximum fluorescence wavelength) ([1]; CHCl3): 683 nm
ε (molar extinction coefficient) ([1]; CHCl3, containing error of 10% (Table 4)): 240,000 M^−1cm^−1
Φ (fluorescence quantum yield) [1, 5]: 0.69
fwhm (full width at half maximum height) ([1]; MeOH): 26 nm
λabs (maximum absorption wavelength) ([1]; MeOH): 659 nm
λflu (maximum fluorescence wavelength) ([1]; MeOH): 672 nm
Φ (fluorescence quantum yield) [1, 6]: 0.58
fwhm (full width at half maximum height) ([1]; THF): 24 nm
λabs (maximum absorption wavelength) ([1]; THF): 665 nm
λflu (maximum fluorescence wavelength) ([1]; THF): 674 nm
Φ (fluorescence quantum yield) ([1]; THF, reference 3,3′-diethyl-dithiazylcarbocyanine, excitation 650 nm, containing error of 10%): 0.63

Molecule: COc1ccc(OC)c(-c2cc3c(o2)=CC2=Cc4cc5oc(-c6cc(OC)ccc6OC)cc5n4[B-](F)(F)[N+]=32)c1 [Fluorescent Compound 7]
shift of maximum absorption wavelength to longer wavelength compared with boron dipyrromethene (R1=R3=R5=R7=Me) [1]: about 170 nm
shift of maximum absorption wavelength to longer wavelength compared with fluorescent compound 2 [1]: about 90 nm
fwhm (full width at half maximum height) ([1]; CHCl3): 24 nm
λabs (maximum absorption wavelength) ([1]; CHCl3): 688 nm and 678 nm
λflu (maximum fluorescence wavelength) ([1]; CHCl3): 688 nm
Φ (fluorescence quantum yield) [1, 5]: 0.51
fwhm (full width at half maximum height) ([1]; MeOH): 28 nm
λabs (maximum absorption wavelength) ([1]; MeOH): 662 nm
λflu (maximum fluorescence wavelength) ([1]; MeOH): 674 nm
Φ (fluorescence quantum yield) [1, 6]: 0.54
